Key:
PASK [1] = biological target: PASK (UniProt # Q96RG2; human recombinant N-terminal GST tagged construct, residues 879-1323) (Homo sapiens (Human), UniProt Q96RG2); assay: PASK ATP Radiochemical Assay; assay type: biochemical; settings: 33P-ATP radiochemical, Myelin Basic Protein substrate; read-out: IC50 Kinase Domain
Method: PASK ATP Radiochemical Assay
Test compounds in DMSO are then added and the mixture, followed by delivery of ^33P-ATP (specific activity 0.01 μCi/μl final) to initiate the reaction. […] The entire reaction mixture is washed through onto a P81 Phosphocellulose paper and washed three times for 10 minutes in 75 mM phosphoric acid and once in methanol prior to drying and scintillation counting.

PASK [2] = biological target: PASK (Homo sapiens (Human), UniProt Q96RG2); assay: PAS Kinase FRET Assay; assay type: biochemical; settings: TR-FRET, Ulight-peptide substrate; read-out: IC50 Kinase Domain
Sequence of PASK (Homo sapiens (Human), UniProt Q96RG2) (Q96RG2 999-1251): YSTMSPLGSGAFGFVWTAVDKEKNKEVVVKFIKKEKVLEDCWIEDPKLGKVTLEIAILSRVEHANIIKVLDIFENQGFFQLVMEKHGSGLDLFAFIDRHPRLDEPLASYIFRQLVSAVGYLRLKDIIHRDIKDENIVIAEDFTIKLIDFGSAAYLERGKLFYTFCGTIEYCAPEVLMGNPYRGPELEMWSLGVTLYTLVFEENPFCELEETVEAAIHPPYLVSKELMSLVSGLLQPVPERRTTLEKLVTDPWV
Description: PAS Kinase FRET Assay The aim of the FRET assay is to determine the inhibition potential of test compounds on targeted kinase. This assay platform provides a homogenous screening method for measuring kinase activity by quantitating the amount of phospho-substrate in solution following a kinase reaction. In the presence of kinase and ATP, the Ulight-peptide is phosphorylated and captured by an anti-phospho-substrate antibody, which brings the Eu chelate donor and Ulight acceptor dyes into close proximity. […] The contents of the plate were and incubated at RT for 1 h. The reaction was stopped by adding 5 μl of stop solution to each test well followed by mixing and incubation at RT for 10 minutes. 5 μl of detection mix (detection antibody diluted in detection buffer) was added; the contents of the plate were mixed and then incubated in the dark for 1 hour at RT. […] The results were graphed to calculate the EC50. Titration of ATP at the EC50 concentration of kinase to determine ATP Km,app. was performed using the following method. […] The contents of the plate were and incubated at RT for 1 h. The reaction was stopped by adding 5 μl of stop solution to each test well followed by mixing and incubation at RT for 10 minutes. 5 μl of detection mix (detection antibody diluted in detection buffer) was added; the contents of the plate were mixed and then incubated in the dark for 1 hour at RT. […] The results were graphed to calculate the EC50 as the ATP Km,app. […] If compound is not soluble under this condition, it was diluted to 3 mM. Kinase reaction buffer was prepared containing 10 mM MgCl2, 50 mM HEPES, 1 mM EGTA, 0.01% TWEEN-20, 2 mM DTT. […] As a positive control, 2.5 μl of positive compound was added to assay wells, and 2.5 μl of DMSO to assay wells as vehicle control. Kinase solution was prepared in reaction buffer at 2× final assay concentration. Kinase solution (5 μl) was added to each well of the assay plate. The substrate and ATP solution was prepared in kinase reaction buffer at 4× final assay concentration. The kinase reaction was started by adding 2.5 μl of substrate+ATP mix solution to each well of the assay plate. The plate is mixed on a plate shaker; then covered and allowed to react for 2 hours in the dark at 25° C. without shaking. The reaction was stopped by adding 5 μl of stop solution to each test well followed by mixing and incubation at RT for 10 minutes in the dark. 5 μl of detection mix (detection antibody diluted in detection buffer) was added; the contents of the plate were mixed and then incubated in the dark for 1 hour at RT.

Sequence of PASK (UniProt # Q96RG2; human recombinant N-terminal GST tagged construct, residues 879-1323) (Homo sapiens (Human), UniProt Q96RG2) (Q96RG2 879-1323, change not shown): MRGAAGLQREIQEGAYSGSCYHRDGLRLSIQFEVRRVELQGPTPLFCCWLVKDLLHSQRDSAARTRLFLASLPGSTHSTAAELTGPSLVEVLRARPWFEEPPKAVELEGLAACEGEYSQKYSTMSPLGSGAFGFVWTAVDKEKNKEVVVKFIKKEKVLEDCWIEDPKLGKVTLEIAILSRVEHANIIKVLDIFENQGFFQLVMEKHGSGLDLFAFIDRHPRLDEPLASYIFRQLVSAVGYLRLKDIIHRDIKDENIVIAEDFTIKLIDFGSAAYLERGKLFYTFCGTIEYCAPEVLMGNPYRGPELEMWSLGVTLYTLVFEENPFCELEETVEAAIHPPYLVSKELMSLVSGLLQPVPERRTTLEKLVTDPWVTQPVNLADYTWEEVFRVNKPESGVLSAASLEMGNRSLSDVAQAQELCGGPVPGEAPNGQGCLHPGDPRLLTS

Row | Compound | IC50 (PASK [1]) [µM] | IC50 (PASK [2]) [µM]
1 | CC1CCCN(c2nc3cc(C(=O)O)ccc3nc2-c2ccc(F)cc2)C1 (stereo not shown) [Example 80, 2-(4-Fluorophenyl)-3-(3-methylpiperidin-1-yl)quinoxaline-6-carboxylic acid] | < 10 | ≤ 10
2 | COc1ccc2c(c1)CCCN2c1nc2cc(C(=O)O)ccc2nc1-c1ccccc1 [Example 66, 3-(6-Methoxy-3,4-dihydroquinolin-1(2H)-yl)-2-phenylquinoxaline-6-carboxylic acid] | < 10 | ≤ 10
3 | COc1ccc(N2CCN(c3nc4cc(C(=O)O)ccc4nc3-c3ccccc3)CC2)cc1 [Example 9, 3-(4-(4-Methoxyphenyl)piperazin-1-yl)-2-phenylquinoxaline-6-carboxylic acid] | < 10 | –
4 | CC(C)N(C)c1nc2cc(C(=O)O)ccc2nc1-c1ccc(F)c(F)c1 [Example 63, 2-(3,4-Difluorophenyl)-3-(isopropyl(methyl)amino)quinoxaline-6-carboxylic acid] | < 10 | ≤ 10
5 | O=C(O)c1ccc2nc(-c3ccccc3)c(N3CCN(c4ccc(Cl)cc4)CC3)nc2c1 [Example 8, 3-(4-(4-Chlorophenyl)piperazin-1-yl)-2-phenylquinoxaline-6-carboxylic acid] | < 10 | –
6 | CC(C)N(C)c1nc2cc(C(=O)O)ccc2nc1-c1ccc(Cl)cc1 [Example 64, 2-(4-Chlorophenyl)-3-(isopropyl(methyl)amino)quinoxaline-6-carboxylic acid] | < 10 | ≤ 10
7 | O=C(O)c1ccc2nc(-c3ccccc3)c(N3CCN(c4ccccc4)CC3)nc2c1 [Example 6, 2-Phenyl-3-(4-phenylpiperazin-1-yl)quinoxaline-6-carboxylic acid] | < 10 | –
8 | CC(C)N(C)c1nc2cc(C(=O)O)ccc2nc1-c1ccccc1 [Example 43, 3-(Isopropyl(methyl)amino)-2-phenylquinoxaline-6-carboxylic acid] | < 10 | ≤ 10
9 | CC(C)N(C)c1nc2cc(C(=O)O)ccc2nc1-c1ccncc1 [Example 87, 3-(Isopropyl(methyl)amino)-2-(pyridin-4-yl)quinoxaline-6-carboxylic acid] | < 10 | ≤ 10
10 | COCC1CCCN(c2nc3cc(C(=O)O)ccc3nc2-c2ccc(F)cc2)C1 (stereo not shown) [Example 78, 2-(4-Fluorophenyl)-3-(3-(methoxymethyl)piperidin-1-yl)quinoxaline-6-carboxylic acid] | < 10 | ≤ 10
11 | O=C(O)c1ccc2nc(-c3ccccc3)c(N3CCN(c4ccccn4)CC3)nc2c1 [Example 2, 2-Phenyl-3-(4-(pyridin-2-yl)piperazin-1-yl)quinoxaline-6-carboxylic acid] | < 10 | –
12 | O=C(O)c1ccc2nc(-c3ccccc3)c(N3CCC(c4cccc(Cl)c4)CC3)nc2c1 [Example 10, 3-(4-(3-Chlorophenyl)piperidin-1-yl)-2-phenylquinoxaline-6-carboxylic acid] | < 10 | –
13 | O=C(O)c1ccc2nc(-c3ccccc3)c(N3CCC(c4ccc(C(F)(F)F)cc4)CC3)nc2c1 [Example 7, 2-Phenyl-3-(4-(4-(trifluoromethyl)phenyl)piperidin-1-yl)quinoxaline-6-carboxylic acid] | < 10 | –
14 | O=C(O)c1ccc2nc(-c3ccccc3)c(N3CCN(c4cccc(Cl)c4)CC3)nc2c1 [Example 3, 3-(4-(3-Chlorophenyl)piperazin-1-yl)-2-phenylquinoxaline-6-carboxylic acid] | < 10 | –
15 | O=C(O)c1ccc2nc(-c3ccccc3)c(NCCc3ccccc3)nc2c1 [Example 41, 3-(Phenethylamino)-2-phenylquinoxaline-6-carboxylic acid] | – | ≤ 10
16 | O=C(O)c1ccc2nc(-c3ccccc3)c(N3CCC(c4ccc(Cl)cc4)CC3)nc2c1 [Example 15, 3-(4-(4-Chlorophenyl)piperidin-1-yl)-2-phenylquinoxaline-6-carboxylic acid] | < 10 | –
17 | C[C@@H](c1ccccc1)N(C)c1nc2cc(C(=O)O)ccc2nc1-c1ccccc1 [Example 60, (S)-3-(Methyl(1-phenylethyl)amino)-2-phenylquinoxaline-6-carboxylic acid] | – | ≤ 10
18 | CN(c1nc2cc(C(=O)O)ccc2nc1-c1ccc(F)cc1)C1CC1 [Example 92, 3-(Cyclopropyl(methyl)amino)-2-(4-fluorophenyl)quinoxaline-6-carboxylic acid] | – | ≤ 10
19 | O=C(O)c1ccc2nc(-c3ccccc3)c(N3CCC(c4ccccc4)CC3)nc2c1 [Example 13, 2-Phenyl-3-(4-phenylpiperidin-1-yl)quinoxaline-6-carboxylic acid] | < 10 | –
20 | CC(C)N(C)c1nc2cc(C(=O)O)ccc2nc1-c1ccc(C#N)cc1 [Example 86, 2-(4-Cyanophenyl)-3-(isopropyl(methyl)amino)quinoxaline-6-carboxylic acid] | – | ≤ 10
21 | CC(C)N(C)c1nc2cc(C(=O)O)ccc2nc1-c1ccc(OC(F)(F)F)cc1 [Example 85, 3-(Isopropyl(methyl)amino)-2-(4-(trifluoromethoxy)phenyl)quinoxaline-6-carboxylic acid] | – | ≤ 10
22 | O=C(O)c1ccc2nc(-c3ccccc3)c(NC3CCCCC3)nc2c1 [Example 44, 3-(Cyclohexylamino)-2-phenylquinoxaline-6-carboxylic acid] | – | ≤ 10
23 | CN(c1ccccc1)C1CCN(c2nc3cc(C(=O)O)ccc3nc2-c2ccccc2)CC1 [Example 35, 3-(4-(Methyl(phenyl)amino)piperidin-1-yl)-2-phenylquinoxaline-6-carboxylic acid] | – | ≤ 10
24 | C[C@H]1CCCCN1c1nc2cc(C(=O)O)ccc2nc1-c1ccc(F)cc1 [Example 91, (S)-2-(4-Fluorophenyl)-3-(2-methylpiperidin-1-yl)quinoxaline-6-carboxylic acid] | – | ≤ 10

Results, then the molecule that gave them:

Row | IC50 (PASK [1]) [µM] | IC50 (PASK [2]) [µM] | Compound
25 | < 10 | – | O=C(O)c1ccc2nc(-c3ccccc3)c(N3CCCCCC3)nc2c1 [Example 14, 3-(Azepan-1-yl)-2-phenylquinoxaline-6-carboxylic acid]
26 | < 10 | ≤ 10 | O=C(O)c1ccc2nc(-c3ccccc3)c(N3CCC[C@@H]3C(F)(F)F)nc2c1 [Example 65, (R)-2-Phenyl-3-(2-(trifluoromethyl)pyrrolidin-1-yl)quinoxaline-6-carboxylic acid]
27 | < 10 | ≤ 10 | CN(c1nc2cc(C(=O)O)ccc2nc1-c1ccccc1)C1CC1 [Example 46, 3-(Cyclopropyl(methyl)amino)-2-phenylquinoxaline-6-carboxylic acid]
28 | < 10 | – | O=C(O)c1ccc2nc(-c3ccccc3)c(N3CCCCC3)nc2c1 [Example 12, 2-Phenyl-3-(piperidin-1-yl)quinoxaline-6-carboxylic acid]
29 | – | ≤ 10 | O=C(O)c1ccc2nc(-c3ccccc3)c(N3CC[C@H](O)C3)nc2c1 [Example 50, (S)-3-(3-Hydroxypyrrolidin-1-yl)-2-phenylquinoxaline-6-carboxylic acid]
30 | < 10 | – | O=C(O)c1ccc2nc(-c3ccccc3)c(N3CCN(c4ccc(C(F)(F)F)cc4)CC3)nc2c1 [Example 1, 2-Phenyl-3-(4-(4-(trifluoromethyl)phenyl)piperazin-1-yl)quinoxaline-6-carboxylic acid]
31 | > 10 | – | CN1CCN(c2nc3cc(C(=O)O)ccc3nc2-c2ccccc2)CC1 [Example 4, 3-(4-Methylpiperazin-1-yl)-2-phenylquinoxaline-6-carboxylic acid]
32 | – | ≤ 10 | O=C(O)c1ccc2nc(-c3ccccc3)c(N3CCC[C@H]3CO)nc2c1 [Example 53, (S)-3-(2-(Hydroxymethyl)pyrrolidin-1-yl)-2-phenylquinoxaline-6-carboxylic acid]
33 | – | ≥ 10 | O=C(O)c1ccc2nc(-c3ccccc3)c(N3CCS(=O)(=O)CC3)nc2c1 [Example 102, 3-(1,1-Dioxidothiomorpholino)-2-phenylquinoxaline-6-carboxylic acid]
34 | – | ≤ 10 | C[C@H]1CN(c2ccccn2)CCN1c1nc2cc(C(=O)O)ccc2nc1-c1ccccc1 [Example 94, (S)-3-(2-Methyl-4-(pyridin-2-yl)piperazin-1-yl)-2-phenylquinoxaline-6-carboxylic acid]

— US10781185B2, “Heterocyclic compounds for the inhibition of PASK” (BioEnergenix LLC, priority 2009, dated 2020)
